From ChEMBL document CHEMBL3638630 (2014)

Legend:
Collagenase 3 = Collagenase 3 (Homo sapiens, UniProt P45452); experiment: (§1) Inhibition Assay: The inhibition tests and the evaluation of the inhibition constants (Ki) on the various MMPs were carried out as described by Devel et al. (Devel et al. 2006 J. Biol. Chem. (7)).
Neutrophil collagenase = Neutrophil collagenase (Homo sapiens, UniProt P22894); experiment: as §1
[1] = molecular target: Macrophage metalloelastase (Homo sapiens, UniProt P39900); experiment: as §1
[2] = molecular target: Matrix metalloproteinase-14 (Homo sapiens, UniProt P50281); experiment: as §1
Stromelysin-1 = Stromelysin-1 (Homo sapiens, UniProt P08254); experiment: as §1
[3] = molecular target: Matrix metalloproteinase-9 (Homo sapiens, UniProt P14780); experiment: as §1
Stromelysin-2 = Stromelysin-2 (Homo sapiens, UniProt P09238); experiment: as §1
[4] = molecular target: 72 kDa type IV collagenase (Homo sapiens, UniProt P08253); experiment: as §1
Chain of 72 kDa type IV collagenase (P08253 whole entry): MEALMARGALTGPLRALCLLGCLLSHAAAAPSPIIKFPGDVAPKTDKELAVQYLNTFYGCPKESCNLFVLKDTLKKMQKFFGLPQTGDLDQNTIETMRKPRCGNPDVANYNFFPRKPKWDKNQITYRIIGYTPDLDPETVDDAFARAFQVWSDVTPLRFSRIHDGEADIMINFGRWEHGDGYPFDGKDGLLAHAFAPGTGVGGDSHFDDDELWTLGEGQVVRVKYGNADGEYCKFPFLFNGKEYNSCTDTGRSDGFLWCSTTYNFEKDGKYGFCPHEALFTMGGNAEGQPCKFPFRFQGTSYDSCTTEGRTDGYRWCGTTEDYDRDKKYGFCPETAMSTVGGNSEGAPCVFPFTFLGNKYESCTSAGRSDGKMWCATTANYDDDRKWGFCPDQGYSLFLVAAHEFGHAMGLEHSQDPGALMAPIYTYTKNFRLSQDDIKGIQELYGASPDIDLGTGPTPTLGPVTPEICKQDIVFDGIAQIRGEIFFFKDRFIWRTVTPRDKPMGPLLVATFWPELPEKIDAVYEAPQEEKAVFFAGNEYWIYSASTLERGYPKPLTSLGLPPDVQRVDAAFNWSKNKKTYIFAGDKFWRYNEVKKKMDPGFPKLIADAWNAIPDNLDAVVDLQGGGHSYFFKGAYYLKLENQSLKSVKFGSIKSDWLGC

Chain of Macrophage metalloelastase (P39900 whole entry): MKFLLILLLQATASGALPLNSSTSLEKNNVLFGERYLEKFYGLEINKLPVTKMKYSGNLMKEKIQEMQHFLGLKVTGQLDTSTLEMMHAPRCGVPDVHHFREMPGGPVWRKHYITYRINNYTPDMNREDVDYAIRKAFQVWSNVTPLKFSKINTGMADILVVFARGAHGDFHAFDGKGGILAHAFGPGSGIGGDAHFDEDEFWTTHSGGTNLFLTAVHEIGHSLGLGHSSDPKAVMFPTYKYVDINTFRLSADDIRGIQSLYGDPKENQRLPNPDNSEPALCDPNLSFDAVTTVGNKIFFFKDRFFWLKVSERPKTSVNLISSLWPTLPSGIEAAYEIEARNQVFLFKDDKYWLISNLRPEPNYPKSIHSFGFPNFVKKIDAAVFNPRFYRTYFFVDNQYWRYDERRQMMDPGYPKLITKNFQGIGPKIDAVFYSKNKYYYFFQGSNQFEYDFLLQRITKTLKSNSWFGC
Chain of Neutrophil collagenase (P22894 whole entry): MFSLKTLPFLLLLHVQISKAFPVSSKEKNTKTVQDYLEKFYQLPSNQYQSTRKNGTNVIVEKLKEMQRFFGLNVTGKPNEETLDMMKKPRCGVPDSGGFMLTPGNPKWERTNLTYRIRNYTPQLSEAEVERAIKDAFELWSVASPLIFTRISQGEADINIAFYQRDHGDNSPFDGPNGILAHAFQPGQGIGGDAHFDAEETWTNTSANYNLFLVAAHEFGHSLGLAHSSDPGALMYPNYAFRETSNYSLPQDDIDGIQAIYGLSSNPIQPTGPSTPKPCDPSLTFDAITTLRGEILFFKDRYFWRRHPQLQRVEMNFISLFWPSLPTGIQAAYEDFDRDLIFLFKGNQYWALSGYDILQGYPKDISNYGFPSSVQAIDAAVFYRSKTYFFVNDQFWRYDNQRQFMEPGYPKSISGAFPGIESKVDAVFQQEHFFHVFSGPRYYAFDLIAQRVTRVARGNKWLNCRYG
Chain of Matrix metalloproteinase-9 (P14780 whole entry): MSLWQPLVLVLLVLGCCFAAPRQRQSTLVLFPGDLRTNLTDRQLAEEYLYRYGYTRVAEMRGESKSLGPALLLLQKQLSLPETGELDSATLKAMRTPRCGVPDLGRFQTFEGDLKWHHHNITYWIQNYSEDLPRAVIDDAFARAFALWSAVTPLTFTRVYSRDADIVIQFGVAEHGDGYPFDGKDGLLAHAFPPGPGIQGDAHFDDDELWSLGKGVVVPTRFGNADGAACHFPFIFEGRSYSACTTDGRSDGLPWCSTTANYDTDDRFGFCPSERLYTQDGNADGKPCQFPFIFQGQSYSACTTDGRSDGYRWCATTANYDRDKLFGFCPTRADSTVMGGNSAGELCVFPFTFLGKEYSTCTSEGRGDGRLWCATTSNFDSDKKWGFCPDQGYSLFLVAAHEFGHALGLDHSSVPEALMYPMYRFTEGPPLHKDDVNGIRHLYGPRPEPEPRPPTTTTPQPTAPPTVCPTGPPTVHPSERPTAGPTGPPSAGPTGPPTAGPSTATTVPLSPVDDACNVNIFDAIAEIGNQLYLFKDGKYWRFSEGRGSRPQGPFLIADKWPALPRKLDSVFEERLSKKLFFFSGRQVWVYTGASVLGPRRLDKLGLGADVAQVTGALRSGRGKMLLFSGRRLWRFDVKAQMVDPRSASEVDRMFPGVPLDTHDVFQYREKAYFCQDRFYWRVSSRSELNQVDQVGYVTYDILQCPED
Chain of Stromelysin-2 (P09238 whole entry): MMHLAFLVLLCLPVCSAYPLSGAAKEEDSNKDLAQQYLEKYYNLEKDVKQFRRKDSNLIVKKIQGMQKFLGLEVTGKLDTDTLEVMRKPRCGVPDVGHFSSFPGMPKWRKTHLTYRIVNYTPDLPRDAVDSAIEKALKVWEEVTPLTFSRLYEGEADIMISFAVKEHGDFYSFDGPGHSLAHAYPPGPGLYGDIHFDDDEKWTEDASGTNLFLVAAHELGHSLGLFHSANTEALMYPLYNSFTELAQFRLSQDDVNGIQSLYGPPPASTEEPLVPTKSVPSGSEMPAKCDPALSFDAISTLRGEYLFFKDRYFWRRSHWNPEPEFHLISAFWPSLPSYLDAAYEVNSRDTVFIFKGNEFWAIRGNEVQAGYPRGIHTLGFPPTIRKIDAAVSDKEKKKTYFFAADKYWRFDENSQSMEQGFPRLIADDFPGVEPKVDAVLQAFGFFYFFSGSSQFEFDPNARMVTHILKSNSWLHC
Chain of Stromelysin-1 (P08254 whole entry): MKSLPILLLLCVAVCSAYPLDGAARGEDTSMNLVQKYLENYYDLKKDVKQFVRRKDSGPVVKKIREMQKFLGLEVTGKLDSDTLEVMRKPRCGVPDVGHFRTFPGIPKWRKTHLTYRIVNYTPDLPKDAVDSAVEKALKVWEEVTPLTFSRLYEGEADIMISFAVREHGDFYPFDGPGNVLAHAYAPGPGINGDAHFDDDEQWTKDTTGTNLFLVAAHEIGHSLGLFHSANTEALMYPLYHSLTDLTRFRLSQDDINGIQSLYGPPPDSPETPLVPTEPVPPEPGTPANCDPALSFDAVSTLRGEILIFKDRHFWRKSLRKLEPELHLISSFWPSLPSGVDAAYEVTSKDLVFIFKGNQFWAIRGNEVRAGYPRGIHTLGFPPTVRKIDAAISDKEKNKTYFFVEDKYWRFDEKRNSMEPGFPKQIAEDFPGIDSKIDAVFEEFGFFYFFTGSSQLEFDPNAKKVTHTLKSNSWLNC

Work on `NC(=O)CC[C@H](NC(=O)CCc1ccc(-c2cc(-c3ccccc3)cs2)cc1)C(=O)N[C@@H](CCC(=O)O)C(N)=O` yielded a Ki (Collagenase 3) greater than 1 µM, a Ki (Neutrophil collagenase) greater than 10 µM and a Ki [1] of 0.317 µM. For the same compound, the Ki [2] was greater than 10 µM, the Ki (Stromelysin-1) was greater than 10 µM and the Ki [3] was greater than 5 µM. The Ki (Stromelysin-2) was greater than 10 µM and the Ki [4] was greater than 5 µM.
